Data reported in patent publication US20130303486A1, “Compositions Comprising Zoledronic Acid or Related Compounds for Relieving Pain Associated with Arthritis” (priority 2012, published 2013).
Where two headings read alike, the source gives them in different places.

Legend:
[1] = test system: complex regional pain syndrome (CRPS), fracture hindpaw; assay: rat tibia fracture model of complex regional pain syndrome (CRPS): von Frey, weight bearing, edema, warmth; assay type: in vivo; conditions: oral 18 mg/m^2/day (3 mg/kg/day) for 28 days
Description: The effect of orally administered zoledronic acid was examined in the rat tibia fracture model of complex regional pain syndrome (CRPS). CRPS was induced in the rats by fracturing the right distal tibias of the animals and casting the fractured hindpaws for 4 weeks, as described in Guo T Z et al. (Pain. 2004; 108:95-107).
Animals were orally administered either vehicle (control) or zoledronic acid, in a dosage of 18 mg/m^2/day (3 mg/kg/day) for 28 days, starting on the day of fracture and casting. Drug was dissolved in distilled water and administered by gavage. Animals were fasted for 4 hours before and 2 hours after dosing. At the end of the 28-day period, casts were removed, and on the following day, the rats were tested for hindpaw pain, edema, and warmth.
Pain was assessed by measuring hyperalgesia, and weight bearing. […]
An incapacitance device (IITC Inc. Life Science, Woodland, Calif., USA) was used to measure hindpaw weight bearing, a postural effect of pain. […] Eight readings (excluding the highest and lowest ones) were averaged to calculate the bilateral hindpaw weight-bearing values. Weight bearing data were analyzed as the ratio between right (fracture) and left hindpaw weight bearing values ((2R/(R+L))×100%). […]
The temperature of the hindpaw was measured using a fine wire thermocouple (Omega, Stanford, Conn., USA) applied to the paw skin. […]

[2] = test system: inflammatory pain (mechanical hyperalgesia), CFA-injected hind paw; assay type: in vivo, Sprague-Dawley rats
Description: The effect of orally administered zoledronic acid on inflammatory pain was examined using the rat complete Freund's adjuvant (CFA) model. Inflammatory pain was induced by injection of 100% CFA in a 75 μL volume into the left hind paws of Sprague-Dawley rats on day 0, followed by assessments on days 1-3. Animals were orally administered vehicle (control), zoledronic acid 18 mg/m^2 (or 3 mg/kg), zoledronic acid 120 mg/m^2 (or 20 mg/kg), or zoledronic acid 900 mg/m^2 (or 150 mg/kg) daily on days 1-3. Drug was dissolved in distilled water and prepared fresh daily. Animals were fasted prior to dosing. Under current FDA guidelines for extrapolating starting dosages from animals to humans, dosages expressed in mg/m^2 are considered equivalent between mammalian species. Thus, for example, 18 mg/m^2 in a rat is considered equivalent to 18 mg/m^2 in a human being, while 3 mg/kg in a rat may not be equivalent to 3 mg/kg in a human being.
Values for inflammatory pain (mechanical hyperalgesia) in the vehicle and drug-treated animals were obtained on day 0 prior to CFA injection, and at baseline and post-treatment on days 1-3. Pain was assessed using a digital Randall-Selitto device (dRS; IITC Life Sciences, Woodland Hills, Calif.). Animals were placed in a restraint sling that suspended the animal, leaving the hind limbs available for testing. Paw compression threshold was measured by applying increasing pressure to the plantar surface of the hind paw with a dome-shaped tip placed between the 3rd and 4th metatarsus. Pressure was applied gradually over approximately 10 seconds. Measurements were taken from the first observed nocifensive behavior of vocalization, struggle or withdrawal. A cut-off value of 300 g was used to prevent injury to the animal.
Reversal of inflammatory pain was calculated according to the formula:
% reversal=(Post-treatment−Post-CFA baseline)/(Pre-CFA baseline−Post-CFA baseline)×100.
The experiment was carried out using 9-10 animals per group.

## O=P(O)(O)C(O)(Cn1ccnc1)P(=O)(O)O [zoledronic acid]
[1]
  reversal of fracture induced pain (von Frey pain threshold) as compared to vehicle: 77%
[2]; oral 18 mg/m^2, entire measurement period after 30 minutes from start of treatment
  paw compression thresholds compared to vehicle: higher than for vehicle
[2]; oral 120 mg/m^2 (20 mg/kg) daily days 1-3, all time points
  paw compression thresholds compared to vehicle: approximately equal or inferior to vehicle
[2]; oral 900 mg/m^2 (150 mg/kg) daily days 1-3, all animals euthanized two days after cessation of dosing
  toxicity: significant toxicity
[2]; oral 900 mg/m^2, day three
  paw compression thresholds compared to vehicle: greater than for vehicle
[2]; oral 900 mg/m^2, first two days of dosing
  paw compression thresholds compared to vehicle: lower than vehicle
